What was measured:
[1] = molecular target: T1, extracellular domains of PD-L1 (Homo sapiens, UniProt Q9NZQ7); assay: PD-L1 Dimerization; format: biochemical; conditions: PD-L1-Eu and PD-L1-A2, ratio 665 nm/615 nm
T1 construct: specifically dimerize the extracellular domains of PD-L1
Method: Example 108. PD-L1 Dimerization
Compounds were tested in biochemical protein-protein interaction assays to determine if they can specifically dimerize the extracellular domains of PD-L1. • (1) Diluted cpd 1:3 in succession in DMSO for each column for 10 samples • (2) Transferred 0.2 μL cpds solution in each row to 384 assay plate using Echo, each column containing 2 replicates • (3) Added 20 μL prepared mixture include PD-L1-Eu and PD-L1-A2 solution to assay plate, centrifuged at 1000 rpm for 1 min. • (4) Incubated at 25° C. for […]. • (5) Read fluorescence signal on Envision 2104 plate reader. • (6) Read the Ratio (665 nm/615 nm) signal on Envision. • (7) Analyzed the raw data using the equation (V. Data analysis)

[2] = molecular target: T2, PD-1/PD-L1 (Homo sapiens, UniProt Q9NZQ7); assay: PD-1/PD-L1 Homogeneous Time-Resolved Fluorescence (HTRF) Binding Assay; conditions: PD-1/PD-L1 HTRF activity; 3 nM PD1, 10 nM PD-L1, 25° C.
T2 construct: Recombinant human PD-L1 protein (19-238) with a Histag at the C-terminus; purchased AcroBiosystems PD1-H5229 (PD-L1); PD1-H5257 (PD-1)
T2 sequence (Q9NZQ7 19-238): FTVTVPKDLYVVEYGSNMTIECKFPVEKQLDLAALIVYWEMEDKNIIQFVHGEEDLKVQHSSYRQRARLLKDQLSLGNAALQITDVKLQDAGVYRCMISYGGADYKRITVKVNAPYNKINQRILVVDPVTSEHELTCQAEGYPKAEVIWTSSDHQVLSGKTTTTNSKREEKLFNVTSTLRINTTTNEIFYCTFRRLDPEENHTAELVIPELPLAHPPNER
How it was run: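 Human PD-L1 (19-238, His-tag) 10 nM and PD-1 (25-167, Fc-tag) 3 nM preincubated 40 min with inhibitor in PBS pH 7.4, 0.05% Tween-20, 0.1% BSA, 1% DMSO, 25 °C. Eu-anti-human IgG (1 nM) and anti-His-APC (20 nM) added, 60 min, 665/620 nm ratio; IC50 from percent control activity versus log concentration.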

T1 sequence (Q9NZQ7 19-238 limits assumed): as the sequence (Q9NZQ7 19-238) above

Structure (SMILES)	EC50 [1] [nM]	IC50 [2] [nM]
Cc1cn2nc(-c3cccc(-c4cccc(-c5cc6c(=O)n(CCN[C@]7(C(=O)O)C[C@@H](O)C7)c(C)cn6n5)c4Cl)c3Cl)cc2c(=O)n1CCN[C@]1(C(=O)O)C[C@@H](O)C1 [Compound 101, (1r,1′r,3r,3′r)-1,1′-((((2,2′-dichloro-[1,1′-biphenyl]-3,3′-diyl)bis(6-methyl-4-oxopyrazolo[1,5-a]pyrazine-2,5(4H)-diyl))bis(ethane-2,1-diyl))bis(azanediyl))bis(3-hydroxycyclobutane-1-carboxylic acid)]	< 50	< 10
Cn1c(CN[C@@H](CO)C(=O)O)cn2nc(-c3cccc(-c4cccc(-c5cc6c(=O)n(C)c(CN[C@@H](CO)C(=O)O)cn6n5)c4Cl)c3Cl)cc2c1=O [Compound 80, (2S,2'S)-2,2′-((((2,2′-dichloro-[1,1′-biphenyl]-3,3′-diyl)bis(5-methyl-4-oxo-4,5-dihydropyrazolo[1,5-a]pyrazine-2,6-diyl))bis(methylene))bis(azanediyl))bis(3-hydroxypropanoic acid)]	≥ 100	10 to 100
Cc1cn2nc(-c3cccc(-c4cccc(-c5cc6c(=O)n(CCN[C@@](C)(CO)C(=O)O)c(C)cn6n5)c4Cl)c3Cl)cc2c(=O)n1CCN[C@@](C)(CO)C(=O)O [Compound 95, (2S,2'S)-2,2′-((((2,2′-dichloro-[1,1′-biphenyl]-3,3′-diyl)bis(6-methyl-4-oxopyrazolo[1,5-a]pyrazine-2,5(4H)-diyl))bis(ethane-2,1-diyl))bis(azanediyl))bis(3-hydroxy-2-methylpropanoic acid)]	≥ 100	10 to 100
Cc1cn2cc(-c3cccc(-c4cccc(-c5cc6c(=O)n(CCN7C[C@@H](O)C[C@H]7C(=O)O)c(C)cn6c5)c4Cl)c3Cl)cc2c(=O)n1CCN1C[C@@H](O)C[C@H]1C(=O)O [Compound 50, (2S,2'S,4S,4'S)-1,1′-(((2,2′-dichloro-[1,1′-biphenyl]-3,3′-diyl)bis(3-methyl-1-oxopyrrolo[1,2-a]pyrazine-7,2(1H)-diyl))bis(ethane-2,1-diyl))bis(4-hydroxypyrrolidine-2-carboxylic acid)]		10 to 100
Cn1c(CNCCO)cn2nc(-c3cccc(-c4cccc(-c5cc6c(=O)n(C)c(CNCCO)cn6n5)c4Cl)c3Cl)cc2c1=O [Compound 42, 2,2′-(2,2′-dichloro-[1,1′-biphenyl]-3,3′-diyl)bis(6-(((2-hydroxyethyl)amino)methyl)-5-methylpyrazolo[1,5-a]pyrazin-4(5H)-one)]		< 10
Cc1cn2nc(-c3cccc(-c4cccc(-c5cc6c(=O)n(CCN[C@](C)(CO)C(=O)O)c(C)cn6n5)c4Cl)c3Cl)cc2c(=O)n1CCN[C@](C)(CO)C(=O)O [Compound 96, (2R,2′R)-2,2′-((((2,2′-dichloro-[1,1′-biphenyl]-3,3′-diyl)bis(6-methyl-4-oxopyrazolo[1,5-a]pyrazine-2,5(4H)-diyl))bis(ethane-2,1-diyl))bis(azanediyl))bis(3-hydroxy-2-methylpropanoic acid)]	≥ 100	10 to 100
Cc1cn2nc(-c3cccc(-c4cccc(-c5cc6c(=O)n(CC(C)N[C@@H](CO)C(=O)O)c(C)cn6n5)c4Cl)c3Cl)cc2c(=O)n1CC(C)N[C@@H](CO)C(=O)O (stereo partly drawn) [Compound 87, (2S,2'S)-2,2′-((((2,2′-dichloro-[1,1′-biphenyl]-3,3′-diyl)bis(6-methyl-4-oxopyrazolo[1,5-a]pyrazine-2,5(4H)-diyl))bis(propane-1,2-diyl))bis(azanediyl))bis(3-hydroxypropanoic acid)]		≥ 100

Other lines, results leading:

EC50 [1] [nM]	IC50 [2] [nM]	Structure (SMILES)
< 50	< 10	Cc1cn2nc(-c3cccc(-c4cccc(-c5cc6c(=O)n(CCN[C@H]7C[C@H](O)C7)c(C)cn6n5)c4Cl)c3Cl)cc2c(=O)n1CCN[C@H]1C[C@H](O)C1 [Compound 90, 2,2′-(2,2′-dichloro-[1,1′-biphenyl]-3,3′-diyl)bis(5-(2-(((1r,3r)-3-hydroxycyclobutyl)amino)ethyl)-6-methylpyrazolo[1,5-a]pyrazin-4(5H)-one)]
50 to 100	10 to 100	Cn1c(CN2CC[C@H](C(=O)O)C2)cn2cc(-c3cccc(-c4cccc(-c5cc6c(=O)n(C)c(CN7CC[C@H](C(=O)O)C7)cn6c5)c4Cl)c3Cl)cc2c1=O [Compound 43, (3S,3'S)-1,1′-(((2,2′-dichloro-[1,1′-biphenyl]-3,3′-diyl)bis(2-methyl-1-oxo-1,2-dihydropyrrolo[1,2-a]pyrazine-7,3-diyl))bis(methylene))bis(pyrrolidine-3-carboxylic acid)]
< 50	< 10	Cc1cn2nc(-c3cccc(-c4cccc(-c5cc6c(=O)n(CCN[C@H]7C[C@@H](O)C7)c(C)cn6n5)c4Cl)c3Cl)cc2c(=O)n1CCN[C@H]1C[C@@H](O)C1 [Compound 91, 2,2′-(2,2′-dichloro-[1,1′-biphenyl]-3,3′-diyl)bis(5-(2-(((1s,3s)-3-hydroxycyclobutyl)amino)ethyl)-6-methylpyrazolo[1,5-a]pyrazin-4(5H)-one)]
	10 to 100	Cc1cn2nc(-c3cccc(-c4cccc(-c5cc6c(=O)n(CCN7CCCCC7C(=O)O)c(C)cn6n5)c4Cl)c3Cl)cc2c(=O)n1CCN1CCCCC1C(=O)O (centres unmarked) [Compound 79, 1,1′-(((2,2′-dichloro-[1,1′-biphenyl]-3,3′-diyl)bis(6-methyl-4-oxopyrazolo[1,5-a]pyrazine-2,5(4H)-diyl))bis(ethane-2,1-diyl))bis(piperidine-2-carboxylic acid)]
	≥ 100	O=C1CC[C@@H](Cn2ncn3cc(-c4cccc(-c5cccc(-c6cc7c(=O)n(C[C@@H]8CCC(=O)N8)ncn7c6)c5Cl)c4Cl)cc3c2=O)N1 [Compound 11, 7,7′-(2,2′-dichloro-[1,1′-biphenyl]-3,3′-diyl)bis(2-(((S)-5-oxopyrrolidin-2-yl)methyl)pyrrolo[1,2-d][1,2,4]triazin-1(2H)-one)]
	≥ 100	O=C(O)Cn1cnn2cc(-c3cccc(-c4cccc(-c5cc6c(=O)n(CC(=O)O)cnn6c5)c4Cl)c3Cl)cc2c1=O [Compound 23, 2,2′-((2,2′-dichloro-[1,1′-biphenyl]-3,3′-diyl)bis(4-oxopyrrolo[2,1-f][1,2,4]triazine-6,3(4H)-diyl))diacetic acid]
≥ 100	< 10	Cc1cn2cc(-c3cccc(-c4cccc(-c5cc6c(=O)n(CCNC[C@@H]7CCC(=O)N7)c(C)cn6c5)c4Cl)c3Cl)cc2c(=O)n1CCNC[C@@H]1CCC(=O)N1 [Compound 49, 7,7′-(2,2′-dichloro-[1,1′-biphenyl]-3,3′-diyl)bis(3-methyl-2-(2-((((S)-5-oxopyrrolidin-2-yl)methyl)amino)ethyl)pyrrolo[1,2-a]pyrazin-1(2H)-one)]
	10 to 100	O=C1CC[C@@H](Cn2ccn3cc(-c4cccc(-c5cccc(-c6cc7c(=O)n(C[C@@H]8CCC(=O)N8)ccn7c6)c5Cl)c4Cl)cc3c2=O)N1 [Compound 5, 7,7′-(2,2′-dichloro-[1,1′-biphenyl]-3,3′-diyl)bis(2-(((S)-5-oxopyrrolidin-2-yl)methyl)pyrrolo[1,2-a]pyrazin-1(2H)-one)]
	10 to 100	Cc1cn2nc(-c3cccc(-c4cccc(-c5cc6c(=O)n(C[C@H]7CCNC7)c(C)cn6n5)c4Cl)c3Cl)cc2c(=O)n1C[C@H]1CCNC1 [Compound 81, 2,2′-(2,2′-dichloro-[1,1′-biphenyl]-3,3′-diyl)bis(6-methyl-5-(((S)-pyrrolidin-3-yl)methyl)pyrazolo[1,5-a]pyrazin-4(5H)-one)]
	≥ 100	O=c1c2cc(-c3cccc(-c4cccc(-c5cc6c(=O)n(CCO)cnn6c5)c4Cl)c3Cl)cn2ncn1CCO [Compound 20, 6,6′-(2,2′-dichloro-[1,1′-biphenyl]-3,3′-diyl)bis(3-(2-hydroxyethyl)pyrrolo[2,1-f][1,2,4]triazin-4(3H)-one)]
	≥ 100	O=C1CCC(Cn2cnn3cc(-c4cccc(-c5cccc(-c6cc7c(=O)n(CC8CCC(=O)O8)cnn7c6)c5Cl)c4Cl)cc3c2=O)O1 (centres unmarked) [Compound 27, 6,6′-(2,2′-dichloro-[1,1′-biphenyl]-3,3′-diyl)bis(3-((5-oxotetrahydrofuran-2-yl)methyl)pyrrolo[2,1-f][1,2,4]triazin-4(3H)-one)]
